Source: patent EP0597838B1, “VACCINE COMPOSITIONS” (NORTH AMERICAN VACCINE, INC., priority 1990, dated 1991)

Assays:
[1] = tested on: hepatitis B surface antigen; assay: Antibody response to hepatitis B surface antigen with octadecyl amino acid immunoadjuvants, radioimmunoassay of sera; assay type: in vivo, BALB/c mice; details: 50 ng HBsAg i.m. day 1, boost 35 ng day 21, 100 µg octadecyl amino acid
Protocol: BALB/c mice were immunized with 50 ng of hepatitis B surface antigen in the presence of adjuvant for the non-control mice and in the absence of adjuvant for the control mice. The hepatitis B surface antigen was obtained from 3T3 cells transfected with the gene for the surface antigen. 100 µg of octadecyl amino acid was complexed with the polypeptide as described in Example 2. This mixture, in a total volume of 0.1 ml, was injected on day 1 using an intramuscular route, and the mice were bled on days 7, 14, 21, 28, 35, 42 and 61. The mice were boosted with 35 ng of the polypeptide on day 21.
The antibody concentration in the sera was determined by radioimmunoassay. The antibody concentration was estimated by comparison with a standard curve obtained using a monoclonal antibody.

[2] = tested on: HIV-1 polypeptide; assay: Antibody response to HIV-1 polypeptide in baboons with octadecyl tyrosine hydrochloride, radioimmunoassay; assay type: in vivo
Protocol: 3) Experiments in baboons Two baboons were immunized with 300 µg of chemically synthesized polypeptide, corresponding to the amino acid sequence of residues 503-535 of HIV-1, coupled to Keyhole Limpet Hemocyanin. 500 µg of octadecyl tyrosine hydrochloride was complexed with the polypeptide, as described in Example 2. This mixture in a total volume of 1.0 ml was injected on day 1 and again on day 35. The animals were bled 3 days before the first immunization, and on days 14, 32 and 49. The same experiment was undertaken with another two baboons, but with polypeptide corresponding to the amino acid sequence 526-535 of HIV-1. The antibody concentration in the sera was indirectly measured by radioimmunoassay. Tiltration was undertaken by incubation of samples on plates coated with peptide-albumin conjugate, and reaction with iodine-125 labelled rabbit anti-monkey immunoglobulin.

| Compound | Anti-HBsAg antibody concentration ([1]; day 7) | Anti-HBsAg antibody concentration ([1]; day 14) | Anti-HBsAg antibody concentration ([1]; day 21) | Anti-HBsAg antibody concentration ([1]; day 28) | Anti-HBsAg antibody concentration ([1]; day 35) | Anti-HBsAg antibody concentration ([1]; day 61) | Antibody response to HIV-1 polypeptide ([2]; ANIMAL 1, day 14, 300 µg polypeptide-KLH + 500 µg octadecyl tyrosine hydrochloride on day 1 and 35, background subtracted) | Antibody response to HIV-1 polypeptide ([2]; ANIMAL 1, day 32, 300 µg polypeptide-KLH + 500 µg octadecyl tyrosine hydrochloride on day 1 and 35, background subtracted) | Antibody response to HIV-1 polypeptide ([2]; ANIMAL 1, day 49, 300 µg polypeptide-KLH + 500 µg octadecyl tyrosine hydrochloride on day 1 and 35, background subtracted) | Antibody response to HIV-1 polypeptide ([2]; ANIMAL 1, day -3 (bled before the first immunization), after subtraction of background on bovine serum albumin coated plates) | Antibody response to HIV-1 polypeptide ([2]; ANIMAL 2, day 14, 300 µg polypeptide-KLH + 500 µg octadecyl tyrosine hydrochloride on day 1 and 35, background subtracted) | Antibody response to HIV-1 polypeptide ([2]; ANIMAL 2, day 32, 300 µg polypeptide-KLH + 500 µg octadecyl tyrosine hydrochloride on day 1 and 35, background subtracted) | Antibody response to HIV-1 polypeptide ([2]; ANIMAL 2, day 49, 300 µg polypeptide-KLH + 500 µg octadecyl tyrosine hydrochloride on day 1 and 35, background subtracted) | Antibody response to HIV-1 polypeptide ([2]; ANIMAL 2, day -3 (bled before the first immunization), after subtraction of background on bovine serum albumin coated plates) |
| --- | --- | --- | --- | --- | --- | --- | --- | --- | --- | --- | --- | --- | --- | --- |
| CCCCCCCCCCCCCCCCCCOC(=O)CN | 47 ng/mL | 38 ng/mL | 51 ng/mL | 147 ng/mL | 748 ng/mL | 301 ng/mL | – | – | – | – | – | – | – | – |
| CCCCCCCCCCCCCCCCCCOC(=O)C(N)CC(C)C (centres unmarked) | 48 ng/mL | 42 ng/mL | 37 ng/mL | 160 ng/mL | 590 ng/mL | 496 ng/mL | – | – | – | – | – | – | – | – |
| CCCCCCCCCCCCCCCCCCOC(=O)C1CCCN1 (centres unmarked) | 49 ng/mL | 35 ng/mL | 41 ng/mL | 72 ng/mL | 409 ng/mL | 168 ng/mL | – | – | – | – | – | – | – | – |
| CCCCCCCCCCCCCCCCCCOC(=O)CCN | 31 ng/mL | 45 ng/mL | 44 ng/mL | 120 ng/mL | 337 ng/mL | 373 ng/mL | – | – | – | – | – | – | – | – |
| CCCCCCCCCCCCCCCCCCOC(=O)C(N)CCCCN (centres unmarked) [Octadecyl Lysine] | 33 ng/mL | 55 ng/mL | 39 ng/mL | 51 ng/mL | 67 ng/mL | 53 ng/mL | – | – | – | – | – | – | – | – |
| H-Val-Ala-Pro-Thr-Lys-Ala-Lys-Arg-Arg-Val-Val-Gln-Arg-Glu-Lys-Arg-Ala-Val-Gly-Ile-Gly-Ala-Leu-Phe-Leu-Gly-Phe-Leu-Gly-Ala-Ala-Gly-Ser- (VAPTKAKRRVVQREKRAVGIGALFLGFLGAAGS; printed: Val-Ala-Pro-Thr-Lys-Ala-Lys-Arg-Arg-Val-Val-Gln-Arg-Glu-Lys-Arg-Ala-Val-Gly-Ile-Gly-Ala-Leu-Phe-Leu-Gly-Phe-Leu-Gly-Ala-Ala-Gly-Ser-) [503-535] | – | – | – | – | – | – | 2004 CPM | 2185 CPM | 5948 CPM | 1020 CPM | 2160 CPM | 2121 CPM | 4470 CPM | 1530 CPM |
| Octadecyl Forphenicine | 100 ng/mL | 112 ng/mL | 116 ng/mL | 908 ng/mL | 592 ng/mL | 355 ng/mL | – | – | – | – | – | – | – | – |
| Octadecyl Forphenicinol | 31 ng/mL | 40 ng/mL | 26 ng/mL | 65 ng/mL | 306 ng/mL | 98 ng/mL | – | – | – | – | – | – | – | – |
